Like-named read-outs stand apart in the source and are kept apart here. Blank lines part the entries; values can stand above or below the compound they belong to.
How the values were obtained:
[1] = system: rat liver microsomes (RLMs); assay: EGFR TKI screening: rivaroxaban metabolite M-2 formation in RLM incubation; format: in vitro ADME
Protocol: The system was preincubated at 37 °C for 5 min, followed by the addition of NADPH (1 mM) to initiate the reaction. After incubating for an additional 30 min, a 200 μL of acetonitrile solution containing 200 ng/mL midazolam was introduced. The mixture was vortexed for 30 s, centrifuged at 13000 rpm for 5 min, and the supernatant was removed. Three samples were collected for each group.

CYP2J2 = conditions: cited from earlier work; for inhibition of rivaroxaban hydroxylation by CYP2J2: in vitro ref 24
[2] = biological target: rat liver microsomes (RLMs); assay: Inhibitory mechanism (Ki, αKi, Lineweaver-Burk plots) in RLMs; conditions: read-out: inhibitory constant (Ki), substrate rivaroxaban
Source text: Ki and αKi values were computed, and the inhibitory mechanism was examined using Lineweaver–Burk plots.

[3] = patients on rivaroxaban, combination with clarithromycin ref 33; cited from earlier work
P-gp = system: P-gp; design: method as in PMID 35174529; conditions: in vitro, combination with rivaroxaban ref 21; read-out: IC50 (inhibitory properties of TKIs on DOACs, P-gp mediated); cited from earlier work
CYP3A4 = conditions: in vitro ref 25; cited from earlier work
[4] = combination with TKI ref 25; cited from earlier work

Ki [2]: 3.24 µM
SMILES: C=CC(=O)Nc1cccc(Oc2nc(Nc3ccc(N4CCN(C)CC4)c(F)c3)nc3[nH]ccc23)c1 [avitinib, Avitinib]
ratio of the metabolite concentration relative to the control ([1]; 100 μM EGFR TKI, 0.5 mg/mL RLMs, rivaroxaban metabolite M-2, average): 5.6% | effect on rivaroxaban metabolism (metabolite generation rate vs control) ([1]; 100 μM EGFR TKI, RLMs): significantly inhibited | inhibition pattern with rivaroxaban as probe substrate (CYP2J2): atypical inhibitory kinetics | inhibition of rivaroxaban hydroxylation by CYP2J2 (CYP2J2): concentration-dependent inhibition

SMILES: CC[C@H]1OC(=O)[C@H](C)[C@@H](O[C@H]2C[C@@](C)(OC)[C@@H](O)[C@H](C)O2)[C@H](C)[C@@H](O[C@@H]2O[C@H](C)C[C@H](N(C)C)[C@H]2O)[C@](C)(OC)C[C@@H](C)C(=O)[C@H](C)[C@@H](O)[C@]1(C)O [clarithromycin]
increase in the AUC value for rivaroxaban [3]: two-fold increase

SMILES: COc1cc2ncnc(Nc3ccc(F)c(Cl)c3)c2cc1NC(=O)/C=C/CN1CCCCC1 [dacomitinib]
effect on rivaroxaban metabolism (metabolite generation rate vs control) ([1]; 100 μM EGFR TKI, RLMs): significantly inhibited

SMILES: C#Cc1cccc(Nc2ncnc3cc(OCCOC)c(OCCOC)cc23)c1 [erlotinib]
IC50 (P-gp): < 10 µM

SMILES: COc1cc2ncnc(Nc3ccc(F)c(Cl)c3)c2cc1OCCCN1CCOCC1 [gefitinib, Gefitinib]
inhibition of CYP3A4-mediated rivaroxaban metabolism (CYP3A4): potently inhibited

SMILES: Cc1ccc(NC(=O)c2ccc(CN3CCN(C)CC3)cc2)cc1Nc1nccc(-c2cccnc2)n1 [imatinib]
increase of rivaroxaban AUC [4]: 119.96% | increase of rivaroxaban Cmax [4]: 90.43%

SMILES: CS(=O)(=O)CCNCc1ccc(-c2ccc3ncnc(Nc4ccc(OCc5cccc(F)c5)c(Cl)c4)c3c2)o1 [lapatinib]
effect on rivaroxaban metabolism (metabolite generation rate vs control) [1]: significantly inhibited

SMILES: CCOc1cc2ncc(C#N)c(Nc3ccc(OCc4ccccn4)c(Cl)c3)c2cc1NC(=O)/C=C/CN(C)C [neratinib]
effect on rivaroxaban metabolism (metabolite generation rate vs control) [1]: significantly inhibited

SMILES: C=CC(=O)Nc1cc(Nc2nccc(-c3cn(C)c4ccccc34)n2)c(OC)cc1N(C)CCN(C)C [osimertinib]
inhibition pattern with rivaroxaban as probe substrate (CYP2J2): competitive inhibition | inhibition of rivaroxaban hydroxylation by CYP2J2 (CYP2J2): concentration-dependent inhibition

SMILES: CCN(CC)CCNC(=O)c1c(C)[nH]c(/C=C2\C(=O)Nc3ccc(F)cc32)c1C [sunitinib]
reduction in exposure to rivaroxaban in vivo [4]: 62.32%
